SMILES strings stand for the structures.

In the experiment the test system is HIV-IIIb. The experiment is described as follows: Antiviral assay in MT4 cells. The class given is cell-based. The following applies: Human immunodeficiency virus 1, MT4, 120 h; MT-4 cells mixed with HIV-IIIb at m.o.i. 0.003; 5 days at 37° C.; CellTiter-Glo luminescence; 50% decrease in signal, a measure of HIV-1 replication. Put shortly: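 Compound, tested at ten 3-fold dilutions in quadruplicate in 10% FBS medium, received MT-4 cells pre-mixed 1 hour with HIV-IIIb (m.o.i. 0.003). Protection was read as luminescent cell viability (CellTiter-Glo) after 5 days' culture at 37° C.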
As for `Cc1nc2nc(C(Cc3cc(F)cc(F)c3)NC(=O)Cn3nc(C(F)(F)F)c4c3C(F)(F)[C@@H]3C[C@H]43)c(-c3cccc4c(NS(C)(=O)=O)nn(C)c34)cc2s1` (stereo partly drawn) [Compound 130, 2-((3bS,4aR)-5,5-difluoro-3-(trifluoromethyl)-3b,4,4a,5-tetrahydro-1H-cyclopropa[3,4]cyclopenta[1,2-c]pyrazol-1-yl)-N-(2-(3,5-difluorophenyl)-1-(2-methyl-6-(1-methyl-3-(methylsulfonamido)-1H-indazol-7-yl)thiazolo[4,5-b]pyridin-5-yl)ethyl)acetamide], the EC50 came to 6 nM. The result for `NC(=O)c1cc(-c2cc3sc(N4CCN(c5ccc6c(c5)OCCO6)CC4)nc3nc2[C@H](Cc2cc(F)cc(F)c2)NC(=O)Cn2nc(C(F)F)c3c2C(F)(F)CCC3(F)F)ccc1F` [Compound 139, (S)-5-(5-(1-(2-(3-(difluoromethyl)-4,4,7,7-tetrafluoro-4,5,6,7-tetrahydro-1H-indazol-1-yl)acetamido)-2-(3,5-difluorophenyl)ethyl)-2-(4-(2,3-dihydrobenzo[b][1,4]dioxin-6-yl)piperazin-1-yl)thiazolo[4,5-b]pyridin-6-yl)-2-fluorobenzamide] reads 545 nM; that for `Cn1nc(NS(C)(=O)=O)c2cccc(-c3cc4sc(NCc5ncc[nH]5)nc4nc3[C@H](Cc3cc(F)cc(F)c3)NC(=O)Cn3nc(C(F)(F)F)c4c3C(F)(F)[C@@H]3C[C@H]43)c21` [Example 71, N—((S)-1-(2-(((1H-imidazol-2-yl)methyl)amino)-6-(1-methyl-3-(methylsulfonamido)-1H-indazol-7-yl)thiazolo[4,5-b]pyridin-5-yl)-2-(3,5-difluorophenyl)ethyl)-2-((3bS,4aR)-5,5-difluoro-3-(trifluoromethyl)-3b,4,4a,5-tetrahydro-1H-cyclopropa[3,4]cyclopenta[1,2-c]pyrazol-1-yl)acetamide], 52.2 nM; that for `Cn1cc(-c2nc3nc(C(Cc4cc(F)cc(F)c4)NC(=O)Cn4nc(C(F)(F)F)c5c4C(F)(F)[C@@H]4C[C@H]54)c(-c4cccc5c(NS(C)(=O)=O)nn(C)c45)cc3s2)cn1` (stereo partly drawn) [Example 123, 2-((3bS,4aR)-5,5-difluoro-3-(trifluoromethyl)-3b,4,4a,5-tetrahydro-1H-cyclopropa[3,4]cyclopenta[1,2-c]pyrazol-1-yl)-N-(2-(3,5-difluorophenyl)-1-(2-(1-methyl-1H-pyrazol-4-yl)-6-(1-methyl-3-(methylsulfonamido)-1H-indazol-7-yl)thiazolo[4,5-b]pyridin-5-yl)ethyl)acetamide], 8.6 nM. With `Cn1nc(N)c2cccc(-c3cc4sc(NCC(C)(C)O)nc4nc3[C@H](Cc3cc(F)cc(F)c3)NC(=O)Cn3nc(C(F)F)c4c3C(F)(F)CCC4(F)F)c21` [Compound 60, (S)—N-(1-(6-(3-amino-1-methyl-1H-indazol-7-yl)-2-((2-hydroxy-2-methylpropyl)amino)thiazolo[4,5-b]pyridin-5-yl)-2-(3,5-difluorophenyl)ethyl)-2-(3-(difluoromethyl)-4,4,7,7-tetrafluoro-4,5,6,7-tetrahydro-1H-indazol-1-yl)acetamide] the figure was 60 nM.

Take `NC(=O)c1cc(-c2cc3sc(N4CCN(c5ccncc5)CC4)nc3nc2[C@H](Cc2cc(F)cc(F)c2)NC(=O)Cn2nc(C(F)F)c3c2C2CC2CC3)ccc1F` (some centres unmarked) [Compound 47]: the midpoint of the response, the EC50, lay at 29.3 nM. With `Cn1nc(NS(C)(=O)=O)c2cccc(-c3cc4sc(N5CC6(CNC6)C5)nc4nc3[C@H](Cc3cc(F)cc(F)c3)NC(=O)Cn3nc(C(F)(F)F)c4c3C(F)(F)[C@@H]3C[C@H]43)c21` [Example 87, 2-((3bS,4aR)-5,5-difluoro-3-(trifluoromethyl)-3b,4,4a,5-tetrahydro-1H-cyclopropa[3,4]cyclopenta[1,2-c]pyrazol-1-yl)-N—((S)-2-(3,5-difluorophenyl)-1-(6-(1-methyl-3-(methylsulfonamido)-1H-indazol-7-yl)-2-(2,6-diazaspiro[3.3]heptan-2-yl)thiazolo[4,5-b]pyridin-5-yl)ethyl)acetamide] the figure was 269 nM; with `Cn1nc(NS(C)(=O)=O)c2cccc(-c3cc4sc(N5CCN(C6COC6)CC5)nc4nc3[C@H](Cc3cc(F)cc(F)c3)NC(=O)Cn3nc(C(F)(F)F)c4c3C(F)(F)[C@@H]3C[C@H]43)c21` [Example 76, 2-((3bS,4aR)-5,5-difluoro-3-(trifluoromethyl)-3b,4,4a,5-tetrahydro-1H-cyclopropa[3,4]cyclopenta[1,2-c]pyrazol-1-yl)-N—((S)-2-(3,5-difluorophenyl)-1-(6-(1-methyl-3-(methylsulfonamido)-1H-indazol-7-yl)-2-(4-(oxetan-3-yl)piperazin-1-yl)thiazolo[4,5-b]pyridin-5-yl)ethyl)acetamide], 4.5 nM. With `Cn1nc(NS(C)(=O)=O)c2cccc(-c3cc4sc(N5CCC6(CC5)CNC6)nc4nc3[C@H](Cc3cc(F)cc(F)c3)NC(=O)Cn3nc(C(F)(F)F)c4c3C(F)(F)[C@@H]3C[C@H]43)c21` [Example 90, 2-((3bS,4aR)-5,5-difluoro-3-(trifluoromethyl)-3b,4,4a,5-tetrahydro-1H-cyclopropa[3,4]cyclopenta[1,2-c]pyrazol-1-yl)-N—((S)-2-(3,5-difluorophenyl)-1-(6-(1-methyl-3-(methylsulfonamido)-1H-indazol-7-yl)-2-(2,7-diazaspiro[3.5]nonan-7-yl)thiazolo[4,5-b]pyridin-5-yl)ethyl)acetamide] the figure was 431 nM; with `NC(=O)c1cc(-c2cc3sc(N4CCN(C5COC5)CC4)nc3nc2[C@H](Cc2cc(F)cc(F)c2)NC(=O)Cn2nc(C(F)F)c3c2C(F)(F)CCC3(F)F)ccc1F` [Compound 5], 76.9 nM. Consider `Cn1nc(N)c2cccc(-c3cc4sc(N5CC(C)(O)C5)nc4nc3[C@H](Cc3cc(F)cc(F)c3)NC(=O)Cn3nc(C(F)F)c4c3C3CC3CC4)c21` (stereo partly drawn) [Compound 50, N—((S)-1-(6-(3-amino-1-methyl-1H-indazol-7-yl)-2-(3-hydroxy-3-methylazetidin-1-yl)thiazolo[4,5-b]pyridin-5-yl)-2-(3,5-difluorophenyl)ethyl)-2-(3-(difluoromethyl)-5,5a,6,6a-tetrahydrocyclopropa[g]indazol-1(4H)-yl)acetamide], for which the response was half-maximal at 1.3 nM (EC50). In the case of `CN(C)C1CCN(c2nc3nc([C@H](Cc4cc(F)cc(F)c4)NC(=O)Cn4nc(C(F)(F)F)c5c4C(F)(F)[C@@H]4C[C@H]54)c(-c4cccc5c(NS(C)(=O)=O)nn(C)c45)cc3s2)CC1` [Example 66, 2-((3bS,4aR)-5,5-difluoro-3-(trifluoromethyl)-3b,4,4a,5-tetrahydro-1H-cyclopropa[3,4]cyclopenta[1,2-c]pyrazol-1-yl)-N—((S)-2-(3,5-difluorophenyl)-1-(2-(4-(dimethylamino)piperidin-1-yl)-6-(1-methyl-3-(methylsulfonamido)-1H-indazol-7-yl)thiazolo[4,5-b]pyridin-5-yl)ethyl)acetamide], the EC50 came out at 22.4 nM. The result for `O=C(Cn1nc(C(F)(F)F)c2c1C(F)(F)[C@@H]1C[C@H]21)N[C@H](Cc1cc(F)cc(F)c1)c1nc2nc(N3CCN(c4ccncc4)CC3)sc2cc1-c1ccc2c(c1)C(=O)NC2` [Compound 37, 2-((3bS,4aR)-5,5-difluoro-3-(trifluoromethyl)-3b,4,4a,5-tetrahydro-1H-cyclopropa[3,4]cyclopenta[1,2-c]pyrazol-1-yl)-N—((R)-2-(3,5-difluorophenyl)-1-(6-(3-oxoisoindolin-5-yl)-2-(4-(pyridin-4-yl)piperazin-1-yl)thiazolo[4,5-b]pyridin-5-yl)ethyl)acetamide] reads 1070 nM; that for `Cn1nc(NS(C)(=O)=O)c2c(Cl)ccc(-c3cc4c(nc3[C@H](Cc3cc(F)cc(F)c3)NC(=O)Cn3nc(C(F)(F)F)c5c3C(F)(F)[C@@H]3C[C@H]53)NCC(=O)N4)c21` [Example 107, N—((S)-1-(7-(4-chloro-1-methyl-3-(methylsulfonamido)-1H-indazol-7-yl)-2-oxo-1,2,3,4-tetrahydropyrido[2,3-b]pyrazin-6-yl)-2-(3,5-difluorophenyl)ethyl)-2-((3bS,4aR)-5,5-difluoro-3-(trifluoromethyl)-3b,4,4a,5-tetrahydro-1H-cyclopropa[3,4]cyclopenta[1,2-c]pyrazol-1-yl)acetamide], 42.2 nM. The result for `CC(C)(C)OC(=O)N1CCC[C@H]1c1nc(-c2ccc(C#Cc3nc4nc([C@H](Cc5cc(F)cc(F)c5)NC(=O)Cn5nc(C(F)F)c6c5C(F)(F)CCC6(F)F)c(-c5ccc(F)c(C(N)=O)c5)cc4s3)cc2)c[nH]1` [Compound 137, tert-butyl (S)-2-(4-(4-((6-(3-carbamoyl-4-fluorophenyl)-5-((S)-1-(2-(3-(difluoromethyl)-4,4,7,7-tetrafluoro-4,5,6,7-tetrahydro-1H-indazol-1-yl)acetamido)-2-(3,5-difluorophenyl)ethyl)thiazolo[4,5-b]pyridin-2-yl)ethynyl)phenyl)-1H-imidazol-2-yl)pyrrolidine-1-carboxylate] reads 409 nM; that for `COCCNc1nc2nc([C@H](Cc3cc(F)cc(F)c3)NC(=O)Cn3nc(C(F)F)c4c3C(F)(F)CCC4(F)F)c(-c3ccc(F)c(C(N)=O)c3)cc2s1` [Compound 12, (S)-5-(5-(1-(2-(3-(difluoromethyl)-4,4,7,7-tetrafluoro-4,5,6,7-tetrahydro-1H-indazol-1-yl)acetamido)-2-(3,5-difluorophenyl)ethyl)-2-((2-methoxyethyl)amino)thiazolo[4,5-b]pyridin-6-yl)-2-fluorobenzamide], 158 nM. The result for `Cn1nc(NS(C)(=O)=O)c2c(Cl)ccc(-c3cc4sc(O)nc4nc3[C@H](Cc3cc(F)cc(F)c3)NC(=O)Cn3nc(C(F)F)c4c3C(F)(F)[C@@H]3C[C@H]43)c21` [Example 112, N—((S)-1-(6-(4-chloro-1-methyl-3-(methylsulfonamido)-1H-indazol-7-yl)-2-hydroxythiazolo[4,5-b]pyridin-5-yl)-2-(3,5-difluorophenyl)ethyl)-2-((3bS,4aR)-3-(difluoromethyl)-5,5-difluoro-3b,4,4a,5-tetrahydro-1H-cyclopropa[3,4]cyclopenta[1,2-c]pyrazol-1-yl)acetamide] reads 3.8 nM.

The record behind these values is patent US12077537B2 (Gilead Sciences, Inc., priority 2020, dated 2024).
